“And” between values parts separate entries of the source, which are not always exact repeats. Equal entries are not always repeated. Inconclusive results and toxic doses are left out.
System: L1210 leukemia ip in BDF1 mice, survival T/C
Assay: NCI In Vivo Anticancer Drug Screen. Data for tumor model L1210 Leukemia (intraperitoneal) in B6D2F1 (BDF1) mice
Settings: endpoint: mean survival time, higher = longer survival
Outline: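 Read-out is survival time, reported as the treated-group measurement over the vehicle-control measurement.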

[1] = dose: 50.0 mg/kg/injection, schedule: Q04DX003 (ip), vehicle: saline with Tween-80
[2] = dose: 100.0 mg/kg/injection, schedule: Q04DX003 (ip), vehicle: saline with Tween-80
[3] = dose: 50.0 mg/kg/injection, schedule: Q01DX009 (ip), vehicle: Klucel (hydroxypropylcellulose) (HPC)
[4] = dose: 100.0 mg/kg/injection, schedule: Q01DX009 (ip), vehicle: Klucel (hydroxypropylcellulose) (HPC)
[5] = dose: 100.0 mg/kg/injection, schedule: Q04DX003 (ip), vehicle: Klucel (hydroxypropylcellulose) (HPC)
[6] = dose: 200.0 mg/kg/injection, schedule: Q04DX003 (ip), vehicle: Klucel (hydroxypropylcellulose) (HPC)
[7] = dose: 100.0 mg/kg/injection, schedule: Q01DX009 (ip), vehicle: saline with Tween-80
[8] = dose: 100.0 mg/kg/injection, schedule: Q04DX002 (ip), vehicle: Klucel (hydroxypropylcellulose) (HPC)
[9] = dose: 200.0 mg/kg/injection, schedule: Q04DX002 (ip), vehicle: Klucel (hydroxypropylcellulose) (HPC)
[10] = dose: 200.0 mg/kg/injection, schedule: Q04DX003 (ip), vehicle: saline with Tween-80
[11] = dose: 400.0 mg/kg/injection, schedule: Q04DX003 (ip), vehicle: saline with Tween-80
[12] = dose: 100.0 mg/kg/injection, schedule: Q01DX001 (ip), vehicle: saline
[13] = dose: 200.0 mg/kg/injection, schedule: Q01DX001 (ip), vehicle: saline
[14] = dose: 400.0 mg/kg/injection, schedule: Q01DX001 (ip), vehicle: saline
[15] = dose: 100.0 mg/kg/injection, schedule: Q01DX009 (ip), vehicle: other
[16] = dose: 200.0 mg/kg/injection, schedule: Q01DX009 (ip), vehicle: other

## N#Cc1cn(C2CCCCC2)c2ncccc12
dose: 25.0 mg/kg/injection, schedule: Q04DX003 (ip), vehicle: saline with Tween-80
  T/C: 90 % of control
[1]
  T/C: 97 % of control
[2]
  T/C: 93 % of control

## CS(=O)(=O)O/C=C1\C(=O)OC2CCCCC12 (stereo unspecified)
dose: 12.5 mg/kg/injection, schedule: Q01DX009 (ip), vehicle: water
  T/C: 111 % of control
dose: 25.0 mg/kg/injection, schedule: Q01DX009 (ip), vehicle: water
  T/C: 105 % of control
dose: 50.0 mg/kg/injection, schedule: Q01DX009 (ip), vehicle: water
  T/C: 100 % of control
dose: 100.0 mg/kg/injection, schedule: Q01DX009 (ip), vehicle: water
  T/C: 105 % of control
dose: 200.0 mg/kg/injection, schedule: Q01DX009 (ip), vehicle: water
  T/C: 106 % of control

## Clc1ccc(NC2=NCCCS2)c2ccccc12
dose: 25.0 mg/kg/injection, schedule: Q01DX009 (ip), vehicle: Klucel (hydroxypropylcellulose) (HPC)
  T/C: 98 % of control
[3]
  T/C: 102 % of control
[4]
  T/C: 94 % of control and 92 % of control
[5]
  T/C: 97 % of control
[6]
  T/C: 90 % of control

## Nc1ccc(N=Nc2ccccc2)c2cccnc12 (tested in a mixture with another compound)
dose: 100.0 mg/kg/injection, schedule: Q04DX003 (sc), vehicle: olive oil, sesame oil, peanut oil
  T/C: 100 % of control
dose: 200.0 mg/kg/injection, schedule: Q04DX003 (sc), vehicle: olive oil, sesame oil, peanut oil
  T/C: 100 % of control
dose: 400.0 mg/kg/injection, schedule: Q04DX003 (sc), vehicle: olive oil, sesame oil, peanut oil
  T/C: 117 % of control

## CC1(N)CCC(C(C)(C)N)CC1 (stereo unspecified)
dose: 25.0 mg/kg/injection, schedule: Q01DX009 (ip), vehicle: saline with Tween-80
  T/C: 103 % of control
dose: 50.0 mg/kg/injection, schedule: Q01DX009 (ip), vehicle: saline with Tween-80
  T/C: 97 % of control
[7]
  T/C: 92 % of control

## CN1Cc2ccccc2/C=C\c2ccccc21
[8]
  T/C: 103 % of control
[9]
  T/C: 106 % of control
dose: 400.0 mg/kg/injection, schedule: Q04DX002 (ip), vehicle: Klucel (hydroxypropylcellulose) (HPC)
  T/C: 100 % of control

## NC(=O)c1c(Br)c(Br)c(Br)c(Br)c1C(=O)O (tested in a mixture with another compound)
[1]
  T/C: 96 % of control
[2]
  T/C: 91 % of control and 100 % of control and 90 % of control
[10]
  T/C: 93 % of control and 98 % of control
[11]
  T/C: 93 % of control and 90 % of control

## NC(CSS(=O)(=O)O)=NC1CCCCC1
dose: 6.25 mg/kg/injection, schedule: Q04DX002 (ip), vehicle: saline with Tween-80
  T/C: 120 % of control
dose: 12.5 mg/kg/injection, schedule: Q04DX002 (ip), vehicle: saline with Tween-80
  T/C: 113 % of control
dose: 25.0 mg/kg/injection, schedule: Q04DX002 (ip), vehicle: saline with Tween-80
  T/C: 98 % of control

## O=C(Nc1ccc([N+](=O)[O-])cc1Br)c1ccc(C(=O)Nc2ccc([N+](=O)[O-])cc2Br)cc1
[12]
  T/C: 97 % of control
[13]
  T/C: 105 % of control
[14]
  T/C: 103 % of control

## COc1cccc(OC)c1OC(=O)Nc1cccc(C(F)(F)F)c1
[4]
  T/C: 101 % of control
dose: 200.0 mg/kg/injection, schedule: Q01DX009 (ip), vehicle: Klucel (hydroxypropylcellulose) (HPC)
  T/C: 98 % of control
dose: 400.0 mg/kg/injection, schedule: Q01DX009 (ip), vehicle: Klucel (hydroxypropylcellulose) (HPC)
  T/C: 90 % of control

## BrCCCCCc1ccccc1
[12]
  T/C: 106 % of control
[13]
  T/C: 107 % of control
[14]
  T/C: 101 % of control

## O=C(NCCCCC(Cl)C(=O)O)c1ccccc1 (stereo unspecified)
[2]
  T/C: 100 % of control
[10]
  T/C: 100 % of control
[11]
  T/C: 100 % of control

## O=C1C(N2CCOCC2)=C(c2ccccc2)c2ccccc21
dose: 7.3 mg/kg/injection, schedule: Q01DX009 (ip), vehicle: other
  T/C: 94 % of control and 103 % of control
dose: 11.0 mg/kg/injection, schedule: Q01DX009 (ip), vehicle: other
  T/C: 96 % of control and 100 % of control
dose: 12.5 mg/kg/injection, schedule: Q01DX009 (ip), vehicle: other
  T/C: 350 % of control
dose: 16.5 mg/kg/injection, schedule: Q01DX009 (ip), vehicle: other
  T/C: 96 % of control and 100 % of control
dose: 37.5 mg/kg/injection, schedule: Q01DX009 (ip), vehicle: other
  T/C: 96 % of control and 101 % of control
dose: 50.0 mg/kg/injection, schedule: Q01DX009 (ip), vehicle: other
  T/C: 98 % of control
[15]
  T/C: 88 % of control
[16]
  T/C: 93 % of control

## CCCCOC(=O)c1ccc(NC(=O)Nc2c(C)cccc2C)cc1
[15]
  T/C: 98 % of control
[16]
  T/C: 89 % of control
dose: 400.0 mg/kg/injection, schedule: Q01DX009 (ip), vehicle: other
  T/C: 89 % of control

## O=C(O)C1CC=CCC1C(=O)NC(O)C(Cl)(Cl)Cl (stereo unspecified)
[12]
  T/C: 96 % of control
dose: 100.0 mg/kg/injection, schedule: Q01DX009 (ip), vehicle: saline
  T/C: 103 % of control
dose: 100.0 mg/kg/injection, schedule: Q04DX003 (ip), vehicle: acetone
  T/C: 93 % of control
[13]
  T/C: 100 % of control
dose: 200.0 mg/kg/injection, schedule: Q01DX009 (ip), vehicle: saline
  T/C: 102 % of control
dose: 200.0 mg/kg/injection, schedule: Q04DX003 (ip), vehicle: acetone
  T/C: 98 % of control
[14]
  T/C: 95 % of control
dose: 400.0 mg/kg/injection, schedule: Q01DX009 (ip), vehicle: saline
  T/C: 100 % of control
dose: 400.0 mg/kg/injection, schedule: Q04DX003 (ip), vehicle: acetone
  T/C: 97 % of control

## CCS(=O)(=O)C(S(C)(=O)=O)S(=O)(=O)C(C)C (stereo unspecified)
[5]
  T/C: 92 % of control
[6]
  T/C: 96 % of control
dose: 400.0 mg/kg/injection, schedule: Q04DX003 (ip), vehicle: Klucel (hydroxypropylcellulose) (HPC)
  T/C: 89 % of control

## O=C1C=Cc2ccccc2/C1=C/c1nc(-c2ccc(Cl)cc2)oc1O
[8]
  T/C: 95 % of control
[9]
  T/C: 91 % of control

## COc1ccc(-c2c(COC(C)=O)c(COC(C)=O)c3n2CCC3)cc1
[3]
  T/C: 113 % of control

## Cc1c(/C=C/[N+](=O)[O-])cc(C)c2c3c(oc12)CCCC3
dose: 50.0 mg/kg/injection, schedule: Q01DX001 (ip), vehicle: saline
  T/C: 98 % of control
[12]
  T/C: 93 % of control
[13]
  T/C: 102 % of control

## C1SCC12CSC2
dose: 6.25 mg/kg/injection, schedule: Q01DX001 (ip), vehicle: saline with Tween-80
  T/C: 93 % of control
dose: 12.5 mg/kg/injection, schedule: Q01DX001 (ip), vehicle: saline with Tween-80
  T/C: 96 % of control
dose: 25.0 mg/kg/injection, schedule: Q01DX001 (ip), vehicle: saline with Tween-80
  T/C: 104 % of control

## Cc1ccc(S(=O)(=O)N(C)c2cc(Cl)c(C(N)=O)c(Cl)c2)cc1
dose: 100.0 mg/kg/injection, schedule: Q01DX001 (ip), vehicle: Klucel (hydroxypropylcellulose) (HPC)
  T/C: 93 % of control
dose: 100.0 mg/kg/injection, schedule: Q01DX009 (ip), vehicle: saline sonified
  T/C: 97 % of control
[7]
  T/C: 98 % of control
[2]
  T/C: 105 % of control
dose: 200.0 mg/kg/injection, schedule: Q01DX001 (ip), vehicle: Klucel (hydroxypropylcellulose) (HPC)
  T/C: 95 % of control
dose: 200.0 mg/kg/injection, schedule: Q01DX009 (ip), vehicle: saline sonified
  T/C: 105 % of control
dose: 200.0 mg/kg/injection, schedule: Q01DX009 (ip), vehicle: saline with Tween-80
  T/C: 90 % of control
[10]
  T/C: 101 % of control
dose: 400.0 mg/kg/injection, schedule: Q01DX001 (ip), vehicle: Klucel (hydroxypropylcellulose) (HPC)
  T/C: 100 % of control
dose: 400.0 mg/kg/injection, schedule: Q01DX009 (ip), vehicle: saline sonified
  T/C: 93 % of control
dose: 400.0 mg/kg/injection, schedule: Q01DX009 (ip), vehicle: saline with Tween-80
  T/C: 92 % of control
[11]
  T/C: 92 % of control

## O=C(SCCSC(=O)c1ccccc1)c1ccccc1
dose: 75.0 mg/kg/injection, schedule: Q04DX003 (ip), vehicle: other
  T/C: 98 % of control
dose: 150.0 mg/kg/injection, schedule: Q04DX003 (ip), vehicle: other
  T/C: 106 % of control
dose: 300.0 mg/kg/injection, schedule: Q04DX003 (ip), vehicle: other
  T/C: 112 % of control

## Cc1ccc(-n2c(N)cc(=O)[nH]c2=S)nc1
dose: 100.0 mg/kg/injection, schedule: Q04DX002 (ip), vehicle: saline
  T/C: 96 % of control
dose: 200.0 mg/kg/injection, schedule: Q04DX002 (ip), vehicle: saline
  T/C: 100 % of control
dose: 400.0 mg/kg/injection, schedule: Q04DX002 (ip), vehicle: saline
  T/C: 107 % of control
